Entries after “also recorded” stand apart in the source; their conditions may differ.
How the values were obtained:
[1] = Veliparib pharmacokinetics, cycle 1 day 15; assay type: in vivo, human; settings: co-administered with FOLFIRI; 10–270 mg BID
Source text: In dose-escalation cohorts, blood samples were collected on day 15 of cycle 1 for veliparib PK, and on days 1 and 15 of cycle 1 for PK assessment of the FOLFIRI components irinotecan, SN-38, folinic acid (leucovorin), and 5-FU.

[2] = system: patients with advanced solid tumours; experiment: Treatment-emergent adverse events (NCI CTCAE version 4.0); assay type: in vivo, human
Source text: The sample size was based on clinical justification.

[3] = veliparib plus FOLFIRI, Combined RP2D n = 31, all grades
[4] = veliparib plus FOLFIRI, Combined RP2D n = 31, grade 3/4
[5] = veliparib plus FOLFIRI, Part 1 n = 67, all grades
[6] = veliparib plus FOLFIRI, Part 1 n = 67, grade 3/4
[7] = veliparib plus FOLFIRI, Parts 2 and 3 n = 25, all grades
[8] = veliparib plus FOLFIRI, Parts 2 and 3 n = 25, grade 3/4
[9] = veliparib plus FOLFIRI, Total n = 92, all grades
[10] = veliparib plus FOLFIRI, Total n = 92, grade 3/4
[11] = veliparib plus FOLFIRI, all treated patients (92)
[12] = veliparib plus FOLFIRI, all treated patients (92), any grade

Question: With `C[C@]1(c2nc3c(C(N)=O)cccc3[nH]2)CCCN1` [veliparib, Veliparib] as the compound, how does the “Dose proportionality of veliparib exposure (Cmax, AUC)” value [1] read?
Answer: Its value is “approximately dose-proportional; also recorded: approximate dose proportionality”.

Question: What about the “Patients with TEAEs that led to death within 30 days of the last veliparib dose” value ([2]; considered not related or probably not related to veliparib and FOLFIRI) of the same compound?
Answer: Its value is “Four”.

Question: What about the “Patients with a TEAE that led to death within 63 days after the last veliparib dose” value ([2]; disease progression, considered not related or probably not related) of the same compound?
Answer: Its value is “One”.

Question: What about the “TEAE Alopecia” value [2, 3] of the same compound?
Answer: The value was 16 (51.6) n (%).

Question: And the “TEAE Anaemia” value [2, 3]?
Answer: Its value is 15 (48.3) n (%).

Question: And the “TEAE Constipation” value [2, 3]?
Answer: The value was 9 (29.0) n (%).

Question: And the “TEAE Decreased appetite” value [2, 3]?
Answer: The value was 7 (22.5) n (%).

Question: What about the “TEAE Diarrhoea” value [2, 3] of the same compound?
Answer: The value was 17 (54.8) n (%).

Question: And the “TEAE Fatigue” value [2, 3]?
Answer: The value was 13 (41.9) n (%).

Question: And the “TEAE Nausea” value [2, 3]?
Answer: The value was 23 (74.1) n (%).

Question: And the “TEAE Neutropenia” value [2, 3]?
Answer: Its value is 25 (80.6) n (%).

Question: And the “TEAE Vomiting” value [2, 3]?
Answer: The value was 14 (45.1) n (%).

Question: And the “TEAE Alopecia” value [2, 4]?
Answer: The value was 0 (0.0) n (%).

Question: What about the “TEAE Anaemia” value [2, 4] of the same compound?
Answer: The value was 5 (16.1) n (%).

Question: And the “TEAE Constipation” value [2, 4]?
Answer: Its value is 0 (0.0) n (%).

Question: And the “TEAE Decreased appetite” value [2, 4]?
Answer: The value was 0 (0.0) n (%).

Question: What about the “TEAE Diarrhoea” value [2, 4] of the same compound?
Answer: The value was 5 (16.1) n (%).

Question: And the “TEAE Fatigue” value [2, 4]?
Answer: The value was 0 (0.0) n (%).

Question: And the “TEAE Nausea” value [2, 4]?
Answer: Its value is 1 (3.2) n (%).

Question: And the “TEAE Neutropenia” value [2, 4]?
Answer: Its value is 17 (54.8) n (%).

Question: And the “TEAE Vomiting” value [2, 4]?
Answer: Its value is 1 (3.2) n (%).

Question: What about the “TEAE Alopecia” value [2, 5] of the same compound?
Answer: The value was 31 (46.2) n (%).

Question: What about the “TEAE Anaemia” value [2, 5] of the same compound?
Answer: Its value is 27 (40.2) n (%).

Question: What about the “TEAE Constipation” value [2, 5] of the same compound?
Answer: Its value is 18 (26.8) n (%).

Question: And the “TEAE Decreased appetite” value [2, 5]?
Answer: Its value is 18 (26.8) n (%).

Question: And the “TEAE Diarrhoea” value [2, 5]?
Answer: The value was 40 (59.7) n (%).

Question: And the “TEAE Fatigue” value [2, 5]?
Answer: The value was 27 (40.2) n (%).

Question: And the “TEAE Nausea” value [2, 5]?
Answer: The value was 41 (61.1) n (%).

Question: What about the “TEAE Neutropenia” value [2, 5] of the same compound?
Answer: The value was 41 (61.1) n (%).

Question: What about the “TEAE Vomiting” value [2, 5] of the same compound?
Answer: Its value is 32 (47.7) n (%).

Question: What about the “TEAE Alopecia” value [2, 6] of the same compound?
Answer: The value was 0 (0.0) n (%).

Question: And the “TEAE Anaemia” value [2, 6]?
Answer: The value was 7 (10.4) n (%).

Question: And the “TEAE Constipation” value [2, 6]?
Answer: Its value is 1 (1.4) n (%).

Question: And the “TEAE Decreased appetite” value [2, 6]?
Answer: Its value is 0 (0.0) n (%).

Question: What about the “TEAE Diarrhoea” value [2, 6] of the same compound?
Answer: The value was 5 (7.4) n (%).

Question: And the “TEAE Fatigue” value [2, 6]?
Answer: Its value is 3 (4.4) n (%).

Question: What about the “TEAE Nausea” value [2, 6] of the same compound?
Answer: Its value is 2 (2.9) n (%).

Question: And the “TEAE Neutropenia” value [2, 6]?
Answer: The value was 26 (38.8) n (%).

Question: What about the “TEAE Vomiting” value [2, 6] of the same compound?
Answer: Its value is 3 (4.4) n (%).

Question: What about the “TEAE Alopecia” value [2, 7] of the same compound?
Answer: The value was 9 (36.0) n (%).

Question: What about the “TEAE Anaemia” value [2, 7] of the same compound?
Answer: Its value is 14 (56.0) n (%).

Question: What about the “TEAE Constipation” value [2, 7] of the same compound?
Answer: Its value is 10 (40.0) n (%).

Question: What about the “TEAE Decreased appetite” value [2, 7] of the same compound?
Answer: The value was 13 (52.0) n (%).

Question: What about the “TEAE Diarrhoea” value [2, 7] of the same compound?
Answer: Its value is 16 (64.0) n (%).

Question: And the “TEAE Fatigue” value [2, 7]?
Answer: Its value is 17 (68.0) n (%).

Question: And the “TEAE Nausea” value [2, 7]?
Answer: The value was 15 (60.0) n (%).

Question: What about the “TEAE Neutropenia” value [2, 7] of the same compound?
Answer: The value was 20 (80.0) n (%).

Question: And the “TEAE Vomiting” value [2, 7]?
Answer: Its value is 12 (48.0) n (%).

Question: What about the “TEAE Alopecia” value [2, 8] of the same compound?
Answer: The value was 0 (0.0) n (%).

Question: And the “TEAE Anaemia” value [2, 8]?
Answer: Its value is 2 (8.0) n (%).

Question: What about the “TEAE Constipation” value [2, 8] of the same compound?
Answer: Its value is 1 (4.0) n (%).

Question: What about the “TEAE Decreased appetite” value [2, 8] of the same compound?
Answer: The value was 0 (0.0) n (%).

Question: And the “TEAE Diarrhoea” value [2, 8]?
Answer: Its value is 0 (0.0) n (%).

Question: What about the “TEAE Fatigue” value [2, 8] of the same compound?
Answer: The value was 0 (0.0) n (%).

Question: And the “TEAE Nausea” value [2, 8]?
Answer: The value was 1 (4.0) n (%).

Question: And the “TEAE Neutropenia” value [2, 8]?
Answer: Its value is 13 (52.0) n (%).

Question: What about the “TEAE Vomiting” value [2, 8] of the same compound?
Answer: Its value is 2 (8.0) n (%).

Question: What about the “TEAE Alopecia” value [2, 9] of the same compound?
Answer: Its value is 40 (43.5) n (%).

Question: And the “TEAE Anaemia” value [2, 9]?
Answer: Its value is 41 (44.6) n (%).

Question: And the “TEAE Constipation” value [2, 9]?
Answer: Its value is 28 (30.4) n (%).

Question: What about the “TEAE Decreased appetite” value [2, 9] of the same compound?
Answer: The value was 31 (33.6) n (%).

Question: What about the “TEAE Diarrhoea” value [2, 9] of the same compound?
Answer: The value was 56 (60.9) n (%).

Question: And the “TEAE Fatigue” value [2, 9]?
Answer: The value was 44 (47.8) n (%).

Question: What about the “TEAE Nausea” value [2, 9] of the same compound?
Answer: The value was 56 (60.9) n (%).

Question: What about the “TEAE Neutropenia” value [2, 9] of the same compound?
Answer: The value was 61 (66.3) n (%).

Question: And the “TEAE Vomiting” value [2, 9]?
Answer: Its value is 44 (47.8) n (%).

Question: And the “TEAE Alopecia” value [2, 10]?
Answer: The value was 0 (0.0) n (%).

Question: What about the “TEAE Anaemia” value [2, 10] of the same compound?
Answer: Its value is 9 (9.8) n (%).

Question: What about the “TEAE Decreased appetite” value [2, 10] of the same compound?
Answer: The value was 0 (0.0) n (%).

Question: What about the “TEAE Diarrhoea” value [2, 10] of the same compound?
Answer: Its value is 5 (5.4) n (%).

Question: What about the “TEAE Fatigue” value [2, 10] of the same compound?
Answer: Its value is 3 (3.2) n (%).

Question: What about the “TEAE Nausea” value [2, 10] of the same compound?
Answer: The value was 3 (3.2) n (%).

Question: And the “TEAE Neutropenia” value [2, 10]?
Answer: Its value is 39 (42.4) n (%).

Question: What about the “TEAE Vomiting” value [2, 10] of the same compound?
Answer: Its value is 5 (5.4) n (%).

Question: And the “Grade 3 or 4 TEAE anaemia” value [2, 11]?
Answer: Its value is 9.8%.

Question: What about the “Grade 3 or 4 TEAE neutropenia” value [2, 11] of the same compound?
Answer: Its value is 42.4%.

Question: And the “Patients who discontinued veliparib due to TEAEs” value [2, 11]?
Answer: The value was 5.4%.

Question: And the “Patients with ≥1 grade 3 or 4 TEAEs” value [2, 11]?
Answer: Its value is 67.4%.

Question: What about the “Patients with ≥1 treatment-emergent serious AEs (SAEs)” value [2, 11] of the same compound?
Answer: The value was 38.0%.

Question: And the “Serious AE PD” value [2, 11]?
Answer: Its value is 2.2%.

Question: What about the “Serious AE abdominal pain” value [2, 11] of the same compound?
Answer: Its value is 2.2%.

Question: What about the “Serious AE dehydration” value [2, 11] of the same compound?
Answer: Its value is 2.2%.

Question: And the “Serious AE febrile neutropenia” value [2, 11]?
Answer: Its value is 2.2%.

Question: And the “Serious AE intestinal obstruction” value [2, 11]?
Answer: Its value is 2.2%.

Question: What about the “Serious AE malignant neoplasm progression” value [2, 11] of the same compound?
Answer: The value was 2.2%.

Question: What about the “Serious AE nausea” value [2, 11] of the same compound?
Answer: The value was 2.2%.

Question: And the “Serious AE pyrexia” value [2, 11]?
Answer: Its value is 4.3%.

Question: What about the “Serious AE vomiting” value [2, 11] of the same compound?
Answer: The value was 3.3%.

Question: And the “TEAE alopecia, patients” value [2, 12]?
Answer: Its value is 43.5%.

Question: What about the “TEAE anaemia, patients” value [2, 12] of the same compound?
Answer: The value was 44.6%.

Question: And the “TEAE diarrhoea, patients” value [2, 12]?
Answer: Its value is 60.9%.

Question: What about the “TEAE fatigue, patients” value [2, 12] of the same compound?
Answer: Its value is 47.8%.

Question: And the “TEAE nausea, patients” value [2, 12]?
Answer: The value was 60.9%.

Question: What about the “TEAE neutropenia, patients” value [2, 12] of the same compound?
Answer: The value was 66.3%.

Question: And the “TEAE vomiting, patients” value [2, 12]?
Answer: The value was 47.8%.

Question: What about the “Patients who experienced one or more TEAEs” value ([2]; veliparib plus FOLFIRI, treated patients (92)) of the same compound?
Answer: The value was “All treated patients”.

Source: publication PMC5933261, “A phase 1 dose-escalation study of veliparib with bimonthly FOLFIRI in patients with advanced solid tumours” (British Journal of Cancer, 2018)
